The text below walks through data of ChEMBL document CHEMBL4706529, “Design, synthesis and in vitro cell-free/cell-based biological evaluations of novel ERCC1-XPF inhibitors targeting DNA repair pathway” (Eur J Med Chem, 2020).

Calls of active or inactive are those of the source. The rule behind the calls is not given here.

Series [1] concerns the target T1, DNA excision repair protein ERCC-1/DNA repair endonuclease XPF (Homo sapiens) (UniProt P07992+Q92889). Description: Inhibition of human His-tagged ERCC1-XPF expressed in Escherichia coli BL21 (DE3) cells using 6-FAM-5'CAGCGCTCGG(20T)CCGAGCGCTG-3'-dabcyl at 10 uM measured for 12 mins by fluorescence incision assay.
The target of series [2] is T2, DNA excision repair protein ERCC-1/DNA repair endonuclease XPF (Homo sapiens, UniProt P07992+Q92889).
T2 sequence (P07992 whole entry): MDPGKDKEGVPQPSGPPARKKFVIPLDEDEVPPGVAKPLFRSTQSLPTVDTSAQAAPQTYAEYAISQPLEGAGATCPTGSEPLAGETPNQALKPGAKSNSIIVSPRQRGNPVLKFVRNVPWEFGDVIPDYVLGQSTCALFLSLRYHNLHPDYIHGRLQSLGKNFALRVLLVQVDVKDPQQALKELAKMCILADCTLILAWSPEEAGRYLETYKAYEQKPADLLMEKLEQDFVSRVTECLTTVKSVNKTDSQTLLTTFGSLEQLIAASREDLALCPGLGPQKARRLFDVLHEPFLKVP
T2 sequence (Q92889 whole entry): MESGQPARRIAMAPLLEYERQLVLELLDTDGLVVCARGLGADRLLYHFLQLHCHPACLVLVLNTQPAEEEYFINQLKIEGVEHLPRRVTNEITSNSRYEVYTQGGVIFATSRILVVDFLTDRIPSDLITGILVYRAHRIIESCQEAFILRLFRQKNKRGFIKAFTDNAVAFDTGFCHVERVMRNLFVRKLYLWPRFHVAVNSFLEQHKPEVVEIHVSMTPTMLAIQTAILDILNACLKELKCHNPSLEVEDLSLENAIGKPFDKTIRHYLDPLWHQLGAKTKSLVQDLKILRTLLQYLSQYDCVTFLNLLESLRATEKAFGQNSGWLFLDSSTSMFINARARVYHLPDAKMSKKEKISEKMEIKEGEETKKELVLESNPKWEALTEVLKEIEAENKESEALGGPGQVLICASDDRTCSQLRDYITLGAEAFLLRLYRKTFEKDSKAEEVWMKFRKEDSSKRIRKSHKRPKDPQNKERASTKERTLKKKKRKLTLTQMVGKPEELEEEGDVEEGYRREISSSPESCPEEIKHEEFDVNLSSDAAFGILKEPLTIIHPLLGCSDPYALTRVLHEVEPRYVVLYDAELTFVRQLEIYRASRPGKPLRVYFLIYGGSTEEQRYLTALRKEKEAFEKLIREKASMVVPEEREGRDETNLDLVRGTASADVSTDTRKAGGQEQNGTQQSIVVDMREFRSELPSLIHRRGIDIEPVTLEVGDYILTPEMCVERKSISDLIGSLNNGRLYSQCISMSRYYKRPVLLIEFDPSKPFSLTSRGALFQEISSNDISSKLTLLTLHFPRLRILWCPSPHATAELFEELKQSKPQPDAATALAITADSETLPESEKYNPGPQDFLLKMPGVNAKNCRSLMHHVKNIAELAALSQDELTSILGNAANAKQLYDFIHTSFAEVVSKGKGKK
As to the kind of experiment: Binding affinity to His-tagged human ERCC1-XPF expressed in Escherichia coli BL21 (DE3) cells by steady-state fluorescence assay.

In series [3] the test system is HCT-116. As to the kind of experiment: Cytotoxicity against human HCT-116 cells assessed as reduction in cell viability at >= 5 uM after 3 days. The format is cell-based. Conditions: hct-116, 72 h, time 3 day.
The nature of series [4]: Cytotoxicity against human HCT-116 cells assessed as cell viability at 5 uM after 3 days relative to control. The class given is cell-based. As to conditions: time 3 day, read-out: Activity.
In series [5] the test system is HCT-116. As to the kind of experiment: Antiproliferative activity against human UV-radiated HCT-116 cells assessed as sensitizing capacity by measuring reduction in cell survival at 2 uM by clonogenic survival assay. The format is functional, cell-based.
A short description of series [6]: Binding affinity to 6-FAM-5'CAGCGCTCGG(20T)CCGAGCGCTG-3'-dabcyl (unknown origin) measured for 12 mins by fluorescence incision assay.
Series [7] deals with T1, DNA excision repair protein ERCC-1/DNA repair endonuclease XPF (Homo sapiens). Description: Binding affinity to His-tagged human ERCC1-XPF expressed in Escherichia coli BL21 (DE3) cells at 4 uM by steady-state fluorescence assay relative to control.
Series [8] concerns HCT-116. Description: Cytotoxicity against human HCT-116 cells assessed as reduction in cell viability at 5 to 20 uM after 3 days. The format is cell-based. As to conditions: hct-116, 72 h, dose 5-20 µM, time 3 day.
Series [9] concerns HCT-116. Description: Antiproliferative activity against human HCT-116 cells assessed as sensitizing capacity by measuring reduction in cell survival at 4 uM in presence of cyclophosphamide by clonogenic survival assay. The format is functional, cell-based.
In series [10] the target is T2, DNA excision repair protein ERCC-1/DNA repair endonuclease XPF. Description: Inhibition of human His-tagged human ERCC1-XPF expressed in Escherichia coli BL21 (DE3) cells using 6-FAM-5'CAGCGCTCGG(20T)CCGAGCGCTG-3'-dabcyl measured for 12 mins by fluorescence incision assay.
The target in series [11] is T1, DNA excision repair protein ERCC-1/DNA repair endonuclease XPF (Homo sapiens). Description: Inhibition of ERCC1-XPF in UV-radiated human HCT-116 cells assessed as cyclobutane pyrimidine dimer DNA repair at 2 uM preincubated for 1 hr followed by 8 J/m2 UV-C radiation and measured up to 24 hrs by IgG-Alexafluor antibody based fluorescent microscopic analysis (reference value: 16%). The class given is cell-based. More on the design: scale not given: the % may be the effect or the level left. As to conditions: time hrs <=25.

Series [12] relates to HCT-116. As to the kind of experiment: Cytotoxicity against human HCT-116 cells assessed as reduction in cell viability at 2 uM after 3 days relative to control. The format is cell-based. Conditions: hct-116, 72 h, time 3 day.
Series [13] has as its system HCT-116. Description: Antiproliferative activity against human UV-radiated HCT-116 cells assessed as sensitizing capacity by measuring reduction in cell survival at 2 to 4 uM by clonogenic survival assay. The class given is functional, cell-based. Conditions: dose 2-4 µM.
The test system of series [14] is HCT-116. Description: Antiproliferative activity against human HCT-116 cells assessed as sensitizing capacity by measuring reduction in cell survival at 2 uM in presence of cyclophosphamide by clonogenic survival assay. The format is functional, cell-based.

Take `COc1ccc2c(Nc3ccc(O)c(CN(C)C)c3)ccnc2c1`: in series [1], the inhibition entry was “Active”.

Usually Kd stands for the constant that tells how readily two partners part at equilibrium. The compound `COc1ccc2nc3cc(Cl)ccc3c(Nc3ccc(O)c(CN4CCN(C)CC4)c3)c2c1` had a Kd in series [2] of 0.14 µM. In series [1], the inhibition result was “Active”. For the same compound, the Activity entry with HCT-116 [3] is “Toxic”. The viability at 72 h, 5 µM in series [4] is 35%. Besides, the outcome with HCT-116 [5] was Active.

In the case of `COc1ccc2nc3cc(Cl)ccc3c(Cl)c2c1`, the inhibition result in series [1] was “inactive”.

With `Oc1ccc2nc3cc(Cl)ccc3c(Cl)c2c1`, the inhibition result in series [1] was “Active”.

Turning to `CN1CCN(Cc2cc(N)ccc2O)CC1`, the inhibition entry in series [1] was “inactive”.

In the case of `COc1ccc2c(Nc3ccc(O)cc3)ccnc2c1`, in [1], the inhibition result is “inactive”.

Turning to `COc1ccc2c(Nc3ccc(O)c(CN4CCN(CCN(C)C)CC4)c3)ccnc2c1`, the inhibition result in series [1] was “Active”.

In the case of `CN1CCN(Cc2cc(Nc3c4ccc(Cl)cc4nc4ccc(O)cc34)ccc2O)CC1`, the inhibition result in series [1] is “Active”.

In series [6], `CN1CCN(Cc2cc(Nc3c4ccc(Cl)cc4nc4ccc(OCc5ccccc5)cc34)ccc2O)CC1` gave a dissociation constant Kd of 0.2 µM. Also, the inhibition result in series [1] is “Active”. Moreover, the Activity in [7] was less than 2%; in the series with HCT-116 [8] it was “Non-Toxic”. For the same compound, the result in the series on HCT-116 [9] was inactive.

Regarding `COc1cc(C#N)c(Nc2c3ccc(Cl)cc3nc3ccc(O)cc23)cc1OC`, the inhibition entry in series [1] is “Active”.

In the case of `COc1ccc2c(Cl)ccnc2c1`, the inhibition entry in series [1] is “inactive”.

The term IC50 denotes the concentration at which inhibition is half-maximal. In series [10], `CN(C)CCN1CCN(Cc2cc(Nc3c4ccc(Cl)cc4nc4ccc(O)cc34)ccc2O)CC1` displayed an IC50 of 0.49 µM. The dissociation constant Kd in [2] is 0.085 µM; in series [6] it was 1.05 µM. In series [1], the inhibition entry was “Active”. Besides, the Activity was found to be 25% in series [7], 35% in series [11] and 95% in the series with HCT-116 [12]. Also, the outcome with HCT-116 [13] and with HCT-116 [14] was Active.
